Source: ChEMBL document CHEMBL6092198, “Coumarin-Quinazolinone based photosensitizers: Mitochondria and endoplasmic reticulum targeting for enhanced phototherapy via different cell death pathways” (Eur J Med Chem, 2024)
Active and inactive are the calls of the source. The rule behind the calls is not given here.

How the values were obtained:
[1] = Photophysical property of the compound in water assessed as fluorescence quantum yield under 450 nm photoirradiation with blue light lamp by U-4100 spectrophotometric analysis; type: physicochemical; design: unit not given here; settings: buffer
[2] = Photophysical property of the compound in MeOH assessed as fluorescence quantum yield under 450 nm photoirradiation with blue light lamp by U-4100 spectrophotometric analysis; type: physicochemical; design: unit not given here
[3] = Photophysical property of the compound assessed as singlet oxygen quantum yield under 15 W photoirradiation with blue LED light by EPR spectrophotometric analysis; type: physicochemical; design: unit not given here
[4] = Drug localization in lysosome of human HepG2 cells at 2 uM incubated for 2 hrs by Lyso-Tracker staining based confocal fluorescence microscopy; type: ADME, subcellular; settings: hepg2, 2 h
HepG2 [5] = assay: Cytotoxicity against human HepG2 cells assessed as cell viability incubated for 4 hrs under dark condition by MTT assay; type: functional, cell-based; settings: HepG2, 4 h
[6] = Phototoxicity against human HepG2 cells assessed as cell viability preincubated with compound for 4 hrs followed by light irradiation with 450 nm blue LED lamp for 10 mins and measured after 24 hrs by MTT assay; type: functional, cell-based; settings: HepG2, light or radiation study
[7] = Phototoxic index, ratio of IC50 for cytotoxicity against human HepG2 cells incubated for 4 hrs under dark condition by MTT assay to IC50 for cytotoxicity against human HepG2 cells preincubated with compound for 4 hrs followed by light irradiation with 450 nm blue LED lamp for 10 mins and measured after 24 hrs by MTT assay; type: functional
[8] = Drug localization in nucleus of human HepG2 cells at 2 uM incubated for 2 hrs by […] staining based confocal fluorescence microscopy; type: ADME, subcellular; settings: hepg2, 2 h
[9] = Drug localization in endoplasmic reticulum of human HepG2 cells at 2 uM incubated for 2 hrs by ER-Tracker Blue staining based confocal fluorescence microscopy; type: ADME, subcellular; settings: hepg2, 2 h
HepG2 [10] = assay: (§1) Induction of apoptosis in human HepG2 cells assessed as chromatin condensation by measuring increase in blue fluorescence at 0.1 uM preincubated with compound for 4 hrs followed by light irradiation with 450 nm blue LED lamp for 10 mins and measured after 24 hrs by Hoechst 33342 staining based confocal microscopic analysis; type: functional, cell-based; settings: time 1690.0 min
HepG2 [11] = assay: as §1, with “in red” for “in blue”, “by PI” for “by Hoechst 33342”; type: functional, cell-based; settings: time 1690.0 min
HepG2 [12] = assay: Induction of ferroptosis in human HepG2 cells assessed as cell death preincubated with compound for 4 hrs followed by light irradiation with 450 nm blue LED lamp for 10 mins and measured after 24 hrs in presence of ferrostatin-1 by MTT assay; type: functional, cell-based; settings: time 1690.0 min
HepG2 [13] = assay: Induction of ferroptosis in human HepG2 cells assessed as cell death preincubated with compound for 4 hrs followed by light irradiation with 450 nm blue LED lamp for 10 mins and measured after 24 hrs in presence of 50 uM ferrostatin-1 by MTT assay; type: functional, cell-based; settings: time 1690.0 min
HepG2 [14] = assay: Induction of ferroptosis in human HepG2 cells assessed as cell viability preincubated with compound for 4 hrs followed by light irradiation with 450 nm blue LED lamp for 10 mins and measured after 24 hrs in presence of necrostatin-1 by MTT assay; type: functional, cell-based; settings: time 1690.0 min
HepG2 [15] = assay: Induction of ferroptosis in human HepG2 cells assessed as cell viability preincubated with compound for 4 hrs followed by light irradiation with 450 nm blue LED lamp for 10 mins and measured after 24 hrs in presence of 3-methyladenine by MTT assay; type: functional, cell-based; settings: time 1690.0 min
HepG2 [16] = assay: Induction of ferroptosis in human HepG2 cells assessed as cell viability preincubated with compound for 4 hrs followed by light irradiation with 450 nm blue LED lamp for 10 mins and measured after 24 hrs in presence of chloroquine by MTT assay; type: functional, cell-based; settings: time 1690.0 min
[17] = Drug localization in mitochondria of human HepG2 cells at 2 uM incubated for 2 hrs by MitoTracker red CMXRos staining based confocal fluorescence microscopy; type: ADME; settings: hepg2, 2 h
HepG2 [18] = assay: as §1, with “0.3” for “0.1”; type: functional, cell-based; settings: time 1690.0 min
HepG2 [19] = assay: as §1, with “in red” for “in blue”, “at 0.3” for “at 0.1”, “by PI” for “by Hoechst 33342”; type: functional, cell-based; settings: time 1690.0 min
HepG2 [20] = assay: Induction of ferroptosis in human HepG2 cells assessed as downregulation of Keap1 expression preincubated with compound for 4 hrs followed by light irradiation with blue LED lamp for 10 mins and measured after 24 hrs in presence of Fer-1 by Western blot analysis; type: functional, cell-based; settings: time 1690.0 min
HepG2 [21] = assay: Induction of ferroptosis in human HepG2 cells assessed as downregulation of Gpx4 expression preincubated with compound for 4 hrs followed by light irradiation with blue LED lamp for 10 mins and measured after 24 hrs in presence of Fer-1 by Western blot analysis; type: functional, cell-based; settings: time 1690.0 min
HepG2 [22] = assay: Induction of ferroptosis in human HepG2 cells assessed as downregulation of Fth1 expression preincubated with compound for 4 hrs followed by light irradiation with blue LED lamp for 10 mins and measured after 24 hrs in presence of Fer-1 by Western blot analysis; type: functional, cell-based; settings: time 1690.0 min
HepG2 [23] = assay: Induction of ferroptosis in human HepG2 cells assessed as cell viability preincubated with compound for 4 hrs followed by light irradiation with 450 nm blue LED lamp for 10 mins and measured after 24 hrs in presence of 50 uM Fer-1 by MTT assay relative to control; type: functional; settings: time 1690 min; 28.17 h
HepG2 [24] = assay: Induction of apoptosis in human HepG2 cells assessed as effect on PARP level preincubated with compound for 4 hrs followed by light irradiation with blue LED lamp for 10 mins and measured after 24 hrs by Western blot analysis; type: functional, cell-based; settings: time 1690.0 min
HepG2 [25] = assay: Induction of apoptosis in human HepG2 cells assessed as effect on caspase-3 level preincubated with compound for 4 hrs followed by light irradiation with blue LED lamp for 10 mins and measured after 24 hrs by Western blot analysis; type: functional, cell-based; settings: time 1690.0 min
HepG2 [26] = assay: Induction of apoptosis in human HepG2 cells assessed as increase in Bax expression preincubated with compound for 4 hrs followed by light irradiation with blue LED lamp for 10 mins and measured after 24 hrs by Western blot analysis; type: functional, cell-based; settings: time 1690.0 min
HepG2 [27] = assay: Induction of apoptosis in human HepG2 cells assessed as change in Bcl-2 level preincubated with compound for 4 hrs followed by light irradiation with blue LED lamp for 10 mins and measured after 24 hrs by Western blot analysis; type: functional, cell-based; settings: time 1690.0 min
HepG2 [28] = assay: Induction of apoptosis in human HepG2 cells assessed as reduction in Bcl-2/Bax ratio preincubated with compound for 4 hrs followed by light irradiation with blue LED lamp for 10 mins and measured after 24 hrs by Western blot analysis; type: functional, cell-based; settings: time 1690.0 min
HepG2 [29] = assay: Induction of apoptosis in human HepG2 cells assessed as cytochrome C release from mitochondria preincubated with compound for 4 hrs followed by light irradiation with blue LED lamp for 10 mins and measured after 24 hrs by Western blot analysis; type: functional, cell-based; settings: time 1690.0 min
HepG2 [30] = assay: Induction of mitochondrial damage in human HepG2 cells assessed as change in mitochondrial morphology at 1 uM preincubated with compound for 4 hrs followed by light irradiation with blue LED lamp for 10 mins and measured after 24 hrs by confocal microscopic analysis; type: functional, cell-based; settings: time 1690.0 min
Mitochondrial membrane = assay: Induction of mitochondrial membrane potential loss in human HepG2 cells at 3 uM incubated for 4 hrs in presence of light irradiation by TMRE staining based fluorescence microscopic analysis; type: cell membranes
HepG2 [31] = assay: Antiproliferative activity against human HepG2 cells cultured as 3D spheroids assessed as inhibition of cell growth at 5 to 10 uM pretreated with 450 nm light irradiation and compound for 10 mins and measured at day 5 by fluorescence microscopic analysis; type: functional, cell-based; settings: dose 5-10 µM, time 7210.0 min
HepG2 [32] = assay: Antiproliferative activity against human HepG2 cells cultured as 3D spheroids assessed as inhibition of cell growth at 5 uM pretreated with 450 nm light irradiation and compound for 10 mins and measured at day 5 by fluorescence microscopic analysis; type: functional, cell-based; settings: time 7210.0 min

| Compound | Activity [1] | Activity [2] | Activity [3] | IC50 (HepG2 [5]) | IC50 [6] | Ratio IC50 [7] | other results |
| --- | --- | --- | --- | --- | --- | --- | --- |
| CCN(CC)c1ccc2cc(-c3nc4ccc(OCCCN5CCOCC5)cc4c(=O)[nH]3)c(=O)oc2c1 | 31.49 | 79.66 | 13.06 | 12.4 µM | 380 nM | 32.52 | Drug uptake [4]: Active |
| CCN(CC)c1ccc2cc(-c3nc4ccc(OCCN5CCCCC5)cc4c(=O)[nH]3)c(=O)oc2c1 | 15.68 | 47.65 | 24.5 | 3.95 µM | 110 nM | 35.9 | Drug uptake [8]: Active |
| CCN(CC)c1ccc2cc(-c3nc4ccc(O)cc4c(=O)[nH]3)c(=O)oc2c1 | < 5 | 36.66 | 12.86 | 57.6 µM | 24500 nM | 2.35 |  |
| CCN(CC)c1ccc2cc(-c3nc4ccc(OCc5cn(CCNS(=O)(=O)c6ccc(C)cc6)nn5)cc4c(=O)[nH]3)c(=O)oc2c1 | 7.55 | 59.27 | 30.08 | 36.7 µM | 150 nM | 244.93 | Drug uptake [9]: Active; Activity (HepG2 [10]): Active; Activity (HepG2 [11]): Active; Activity (HepG2 [12]): Active; Activity (HepG2 [13]): Active; Activity (HepG2 [14]): Active; Activity (HepG2 [15]): Active; Activity (HepG2 [16]): Active |
| CCN(CC)c1ccc2cc(-c3nc4ccc(OCc5cn(CCC[P+](c6ccccc6)(c6ccccc6)c6ccccc6)nn5)cc4c(=O)[nH]3)c(=O)oc2c1.[Br-] | 8.72 | 69.6 | 27.22 | 46.7 µM | 280 nM | 166.89 | Drug uptake [17]: Active; Activity (HepG2 [18]): Active; Activity (HepG2 [19]): Active; Activity (HepG2 [20]): Active; Activity (HepG2 [21]): Active; Activity (HepG2 [22]): Active; Activity (HepG2 [23]): ~70%; Activity (HepG2 [24]): Active; Activity (HepG2 [25]): Active; Activity (HepG2 [26]): Active; Activity (HepG2 [27]): inactive; Activity (HepG2 [28]): Active; Activity (HepG2 [29]): Active; Activity (HepG2 [30]): Active; Activity (Mitochondrial membrane): Active; Activity (HepG2 [31]): Active; Activity (HepG2 [32]): Active |
